# Source: patent US7488592B2, “Human protein acyl transferases and methods of uses therefor” (Washington University, priority 2003, dated 2009)
# Tests used:
# yeast Erf2p/Erf4p = target: T1, yeast Erf2p/Erf4p (Saccharomyces cerevisiae, UniProt Q06551); test: Ras PAT assay: [3H]palmitate incorporation into GST-Ras(HV)CCaaX by partially purified Erf2p/Erf4p, with competitor or inhibitor; format: biochemical, S. cerevisiae; details: 0.5 μM [3H]palmitoyl-CoA; for effectiveness as competitor of the radioactive Ras PAT reaction (in words): unlabeled acyl-CoA at concentrations similar to 8 μM, FIG. 17
# T1 construct: made in house; host or cells: S. cerevisiae RJY543 (galactose-induced)
# T1 sequence (Q06551 1-359): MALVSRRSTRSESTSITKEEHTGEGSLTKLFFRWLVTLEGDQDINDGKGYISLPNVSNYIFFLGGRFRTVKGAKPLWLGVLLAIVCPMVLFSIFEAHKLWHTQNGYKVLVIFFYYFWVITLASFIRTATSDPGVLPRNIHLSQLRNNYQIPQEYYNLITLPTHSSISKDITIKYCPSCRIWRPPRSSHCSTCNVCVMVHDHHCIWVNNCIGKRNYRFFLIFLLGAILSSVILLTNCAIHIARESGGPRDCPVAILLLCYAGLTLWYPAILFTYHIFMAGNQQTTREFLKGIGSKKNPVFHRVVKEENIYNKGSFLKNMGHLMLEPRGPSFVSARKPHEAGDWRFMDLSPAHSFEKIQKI
# T1 sequence (P41912 1-237 partner): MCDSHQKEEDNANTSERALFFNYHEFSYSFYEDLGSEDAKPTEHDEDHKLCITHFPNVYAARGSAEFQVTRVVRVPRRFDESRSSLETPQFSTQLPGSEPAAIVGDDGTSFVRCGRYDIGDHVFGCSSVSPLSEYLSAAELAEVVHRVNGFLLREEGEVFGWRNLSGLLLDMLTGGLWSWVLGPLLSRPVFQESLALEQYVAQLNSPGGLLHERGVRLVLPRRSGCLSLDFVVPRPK
# Procedure: FIG. 17—Concentration dependent inhibition of yeast PAT activity by acyl-CoAs. Partially purified yeast Erf2p/Erf4p was assayed for PAT activity in the presence of 0.5 μM [^3H]palmitoyl-CoA and the indicated concentrations of unlabeled acyl-CoA substrates as indicated: decanoyl-CoA (C10:0), lauroyl-CoA (C12:0), myristoyl-CoA (C14:0), palmitoyl-CoA (C16:0), palmitoleoyl-CoA (C16:1), stearoyl-CoA (C18:0), and oleoyl-CoA (C18:1). Radiolabeled palmitoylated GST-Ras(HV)CCaaX was excised from the gel and quantitated. Results are expressed as a percent of Ras PAT activity in the absence of competitor (100%).
# FIG. 18—Inhibition of Erf2p/Erf4p-dependent PAT by 2-bromopalmitate. Partially purified Erf2p/Erf4p was assayed for palmitoyltransferase activity using GST-Ras(HV)CCaaX (1.33 μM) and 0.5 μM [^3H]palmitoyl-CoA as substrate. Radiolabeled palmitoylated GST-Ras(HV)CCaaX was excised from the gel and quantitated. Results are expressed as a percent of Ras PAT activity in the absence of competitor (100%).
# Ras PAT Assays—Ras PAT activity was assayed by measuring the incorporation of tritiated palmitate. [^3H]palmitoyl-CoA substrate was synthesized from [^3H]palmitic acid (NEN) and Coenzyme A using acyl-CoA synthetase (Sigma) and purified as described (Taylor et al., 1990). The PAT assay (25 μl of final volume) was performed by adding 1.5 μg of GST-Ras(HV)CCaaX(2 μM) to GST-Erf4p/FLAG-Erf2p GSH beads in 1 mM DTT, 100 mM MES (pH 6.3). The reaction was started by the addition of 1 μl of [^3H]palmitoyl-CoA (0.5 μM), incubated for 15 min at 30° C., and terminated by the addition of 5 μl of a 5× solution of SDS gel loading buffer without DTT. Heat inactivation was performed by boiling (100° C., 15 min) the GSH beads containing GST-Erf4p/FLAG-Erf2p prior to the addition of substrates. The assays were analyzed by SDS-PAGE using Bis-Tris gels, pH 6.4 (Nu-PAGE®), and subjected to fluorography as described (Mitchell et al., 1994). Quantitation of Ras PAT activity was done by excising Ras protein bands from the gel, solubilizing them in Soluene S-350 (Packard), and counting in a scintillation counter.
# The lipid substrate specificity of Ras PAT was investigated by adding increasing amounts of unlabeled acyl-CoA competitors to the radioactive Ras PAT reaction. […] Decanoyl (C10:0) was ineffective at similar concentrations. […] Both saturated and unsaturated fatty acyl-CoAs were effective inhibitors. Little difference was observed between C16:0 and C16:1, or C18:0 and C18:1. The lack of complete acyl-CoA substrate specificity of Ras PAT is consistent with the finding that thioester-linked fatty acids on protein are heterogeneous in vivo (Linder, 2001).
# Inhibition of autopalmitoylation or substrate palmitoylation can come about by substrates or substrate analogs. […] The lipid substrate specificity of yeast Erf2p/Erf4p for Ras palmitoylation was investigated by adding increasing amounts of unlabeled acyl-CoA competitors to the radioactive Ras PAT reaction. […] Decanoyl (C10:0) was ineffective at similar concentrations. […] Both saturated and unsaturated fatty acyl-CoAs were effective inhibitors. Little difference was observed between C16:0 and C16:1, or C18:0 and C18:1. The lack of complete acyl-CoA substrate specificity of Ras PAT is consistent with the finding that thioester-linked fatty acids on protein are heterogeneous in vivo (Linder, 2001). […]
# Erf2p/Erf4p complex = target: T2, Erf2p/Erf4p complex (Saccharomyces cerevisiae, UniProt Q06551); test: Autopalmitoylation of Erf2p, microtiter plate assay with [3H]palmitoyl CoA; format: biochemical, yeast; details: 2-bromopalmitate 16, 63 or 250 μM; 30 minutes at 25 °C; no substrate
# T2 construct: FLAG (N); made in house
# T2 sequence (Q06551 1-359): T1 sequence (Q06551 1-359)
# T2 sequence (P41912 1-237 partner): T1 sequence (P41912 1-237 partner)
# Procedure: FIG. 19—Inhibition of autopalmitoylation of Erf2p. Partially purified […]/GST-Erf4p (2.7 nM) was bound to the well of a GSH coated microtiter plate. The complex was incubated in reaction buffer (122 mM NaCl, 183 mM Tris HCl pH 7.8, 0.6 mM DTT and 0.035% Triton X-100) (registered trademark of Union Carbide Chemicals and Plastics Co., Inc. for a compound of formula C14H22O(C2H4O)n (CAS No. 9002-93-1); hereinafter referred to as “Triton X-100”))in the presence or absence of 2-bromopalmitate (16 .μ.M, 63 .μ.M or 250 .μ.M). The autopalmitoylation reaction was initiated by addition of 5 .μ.l of 3 .μ.M [^ 3H]palmitoyl CoA and the reaction was incubated for 30 minutes at 25 ° C. The wells were washed (3 × 200 .μ.l 20 mM phosphate pH 6 with 1% Triton X-100) and 3 × 200 .μ.l 25% ipa in water. Finally, wash with 2 × 200 .μ.l 20 mM phosphate pH 6 with 150 mM NaCl. The wells were counted in scintillation fluid.
# The inventors tested whether 2-BP inhibits autopalmitoylation of yeast Erf2p.
# PAT = details: reported by Webb et al., 2000; cited from earlier work
smiles,measurement,setting,value
"CCCCCCCCCCCCCCC(Br)C(=O)O (stereo not shown) [2-BP, 2-Bromopalmitate]",inhibition of Erf2/Erf4-dependent PAT activity using yeast Ras2 as a substrate (in words),"yeast Erf2p/Erf4p; increasing concentrations of 2-BP, GST-Ras(HV)CCaaX 1.33 μM",inhibits
same,inhibition of autopalmitoylation of Erf2p (in words),Erf2p/Erf4p complex,inhibited in a dose-dependent manner
same,inhibition of PAT activity in vivo (in words),PAT,inhibit PAT activity in vivo
"CCCCCCCCCC(=O)SCCNC(=O)CCNC(=O)[C@H](O)C(C)(C)COP(=O)(O)OP(=O)(O)OC[C@H]1O[C@@H](n2cnc3c(N)ncnc32)[C@H](O)[C@@H]1OP(=O)(O)O [Decanoyl, decanoyl-CoA]",effectiveness as competitor of the radioactive Ras PAT reaction (in words),yeast Erf2p/Erf4p,ineffective
"CCCCCCCCCCCC(=O)SCCNC(=O)CCNC(=O)[C@H](O)C(C)(C)COP(=O)(O)OP(=O)(O)OC[C@H]1O[C@@H](n2cnc3c(N)ncnc32)[C@H](O)[C@@H]1OP(=O)(O)O [Lauryl, lauroyl-CoA]",effectiveness as competitor of the radioactive Ras PAT reaction (in words),yeast Erf2p/Erf4p,more effective
"CCCCCCCCCCCCCC(=O)SCCNC(=O)CCNC(=O)[C@H](O)C(C)(C)COP(=O)(O)OP(=O)(O)OC[C@H]1O[C@@H](n2cnc3c(N)ncnc32)[C@H](O)[C@@H]1OP(=O)(O)O [myristoyl, myristoyl-CoA]",effectiveness as competitor of the radioactive Ras PAT reaction (in words),yeast Erf2p/Erf4p,more effective
CCCCCCCCCCCCCCCC(=O)SCCNC(=O)CCNC(=O)[C@H](O)C(C)(C)COP(=O)(O)OP(=O)(O)OC[C@H]1O[C@@H](n2cnc3c(N)ncnc32)[C@H](O)[C@@H]1OP(=O)(O)O [palmitoyl-CoA],inhibition of Ras PAT activity by unlabeled acyl-CoA competitor,"yeast Erf2p/Erf4p; 8 μM competitor, a 16-fold excess",90%
